Patent US10266529B2, “Salts, co-crystals, and polymorphs of an anxiolytic compound” (Bionomics Limited, priority 2013, dated 2019)
Values after ≈ are worked out from the molar mass of the structure shown.

Tests used:
Assay type in all cases: physicochemical
[1] = Aqueous solubility determination (2 h equilibration in doubly distilled water, HPLC)
Method: Approximately 0.3 mL of doubly distilled water was added to 3-10 mg of the substance to be measured. The resulting suspension/solution was equilibrated in a temperature-controlled Eppendorf Thermomixer Comfort shaker for 2 h at 25° C. at a shaking rate of 500 rpm. The solid phase was recovered by filter centrifugation (0.10-μm PVDF membrane) and examined by FT-Raman spectroscopy. The pH of the corresponding solution was determined with a Metrohm 713 pH meter. The concentration of the solution was determined by HPLC (see below).
Standard solutions of the SP196-FD-P1 free drug of compound 1 and the L-malate salt of compound 1 (SP196-MLA-P4) were prepared in the concentration range of 0.2-0.05 mg/mL for the construction of a calibration curve.

[2] = DVS (dynamic vapor sorption) isotherm / hygroscopicity
Method: Projekt Messtechnik Sorptions Prüfsystem SPS 11-100n or Surface Measurement Systems DVS-1. The sample was placed on an aluminum or platinum holder on top of a microbalance and allowed to equilibrate for 2 h at 50% r.h. before starting one of two pre-defined humidity programs: • (1) 2 h at 50% r.h.; • (2) 50→0% r.h. […] (5%/h); 5 h at 0% r.h.; and • (4) 0→50% r.h. (5%/h); 2 h at 50% r.h.

[3] = Suspension equilibration experiments (thermodynamically stable polymorphic form); settings: at least in the temperature range from 25° C. to 60° C.
Method: Suspension equilibration experiments in a variety of different solvents and solvent mixtures were carried out at various temperatures.
In addition, the use of high temperatures can help overcome kinetic barriers to polymorphic interconversion.
The experiments at 5° C. were carried out to search for solvated (and additional hydrated) forms of compound 1 since experiments at low temperatures are conducive to solvate and hydrate formation.
The amorphous material was used as the starting material for several suspension equilibration experiments (temperature=5° C., 30° C., 75° C., or 90° C.; duration=1 d, 5 d, or 7 d; solvent=THF, 96:4 acetone/H2O, 98.5/1.5 acetone/H2O, 2-PrOH, or water). Since the amorphous form is in a higher energy state than the crystalline form of the starting material compound 1, potential kinetic barriers might not poses as much of a hindrance for a transformation. The amorphous form of compound 1 was used as starting material for experiments to determine the stability range of compound 1 by equilibration at various water activity levels.
Upon completion of the suspension equilibration experiments, the recovered products were examined by Raman spectroscopy both immediately after filtration and after 30 min of drying under vacuum at room temperature. […]

[4] = Stability of amorphous material under ambient conditions (re-examination by XRPD)
Text: The amorphous material appears to be stable for at least 5 days under ambient conditions, as it was unchanged after re-examination by XRPD (data not shown).

FT-Raman spectrum of the solid residue after aqueous solubility determination ([1]; after 2 h equilibration at 25° C. in water) | solubility at 2 h ([1]; doubly distilled water, 25 °C, pH 7.5, water, thermodynamic from solid, after 2 h equilibration at 25° C., pH=7.5 of saturated solution) [µg/mL] | DVS final mass above the starting mass ([2]; after return from 95% r.h. to 50% r.h.) | DVS reversible mass loss ([2]; decreasing relative humidity from 50% r.h. to 0%) [wt %] | DVS mass increase ([2]; from 50% to 85% r.h.) [wt %] | DVS (total) mass increase ([2]; increasing relative humidity from 50% r.h. to 95% r.h.) [wt %] | stability of the amorphous material (unchanged by XRPD) [4] | Structure (SMILES) | hygroscopicity classification ([2]; based on mass gain at 85% r.h.) | FT-Raman spectrum of the material after the DVS measurement ([2]; solid form after DVS cycle) | thermodynamic stability of the polymorph [3]
unchanged | ~40 (≈ 95.6 µM) | equal to the starting mass | ~0.3 | ~0.2 | ~0.6 | – | CCn1cc(C(=O)N2CCOCC2)c(=O)c2cc(NC3Cc4ccccc4C3)cnc21 [Form C, 1-ethyl-6-(indan-2-ylamino)-3-(morpholine-4-carbonyl)-1,8-naphthyridin-4-one] | slightly hygroscopic (slightly hygroscopic (mass increase<2% and ≥0.2%)) | corresponds to the spectrum of the material before the DVS measurement | thermodynamically stable polymorph
– | – | – | – | – | – | at least 5 days | CCn1cc(C(=O)N2CCOCC2)c(=O)c2cc(NC3Cc4ccccc4C3)cnc21 [Form A, 1-ethyl-6-(indan-2-ylamino)-3-(morpholine-4-carbonyl)-1,8-naphthyridin-4-one] | – | – | –
– | – | – | – | – | – | – | CCn1cc(C(=O)N2CCOCC2)c(=O)c2cc(NC3Cc4ccccc4C3)cnc21 [Form D, 1-ethyl-6-(indan-2-ylamino)-3-(morpholine-4-carbonyl)-1,8-naphthyridin-4-one] | – | – | thermodynamically less stable than Form C
